US10208059B2, “Heterocyclic modulators of HIF activity for treatment of disease” (Board of Regents, University of Texas System, priority 2012, dated 2019)
pIC50: −log10 of the molar value. Counter-ions that a name gives are not always drawn.

These compounds were tested on 293T-HRE-GFP-luc cells (assay: Cell-based reporter assay for IC50 determinations). Conditions: hypoxia 6 hrs (1% O2), luminescence, read-out: IC50 Classification.
In short: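 IC50 comes from a four-parameter logistic fit of luminescence from HRE-GFP-luc 293T cells. Compounds (1:3 series, 1:50 medium dilution) were preincubated 30 min under normoxia, followed by 6 h at 1% O2, 5% CO2, 37 °C, before Steadylite luciferase detection.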

Q: Cc1nc(-c2ncc(-c3ccc(OC(F)(F)F)cc3)o2)nn1Cc1cccc(C(=O)N(C)C)c1 [Example 157, N,N-dimethyl-3-[(5-methyl-3-{5-[4-(trifluoromethoxy)phenyl]-1,3-oxazol-2-yl}-1H-1,2,4-triazol-1-yl)methyl]benzamide] was tested. Which pIC50 did it give?
A: The pIC50 was 6.00 to 7.00.

Q: Cc1nc(-c2nc(-c3ccc(OC(F)(F)F)cc3)no2)nn1Cc1cccc(OCC(N)=O)c1 [Example 61, 2-{3-[(5-Methyl-3-{3-[4-(trifluoromethoxy)phenyl]-124-oxadiazol-5-yl}-1H-124-triazol-1-yl)methyl]phenoxy}acetamide] was tested. Which pIC50 did it give?
A: The pIC50 was greater than 7.00.

Q: Cc1nc(-c2nc(-c3ccc(OC(F)(F)F)cc3)no2)nn1Cc1cccc(C(=O)NCCN(C)C)c1 [Example 30, N-(2-(Dimethylamino)ethyl)-3-((5-methyl-3-(3-(4-(trifluoromethoxy)phenyl)-1,2,4-oxadiazol-5-yl)-1H-1,2,4-triazol-1-yl)methyl)benzamide] was tested. Which pIC50 did it give?
A: Its pIC50 is greater than 7.00.

Q: Cc1nc(-c2cc(-c3ccc(OC(F)(F)F)cc3)on2)nn1Cc1cccc(N2CCN(C)CC2)c1 [Example 162, 1-methyl-4-{3-[(5-methyl-3-{5-[4-(trifluoromethoxy)phenyl]-1,2-oxazol-3-yl}-1H-1,2,4-triazol-1-yl)methyl]phenyl}piperazine] was tested. Which pIC50 did it give?
A: The pIC50 was greater than 7.00.

Q: With Cc1nc(-c2nc(-c3ccc(OC(F)(F)F)cc3)no2)nn1Cc1cccc(N2CCNC(=O)C2)c1 [Example 145, 4-{3-[(5-methyl-3-{3-[4-(trifluoromethoxy)phenyl]-1,2,4-oxadiazol-5-yl}-1H-1,2,4-triazol-1-yl)methyl]phenyl]piperazin-2-one] as the compound, how does the pIC50 read?
A: The pIC50 was greater than 7.00.

Q: How did the pIC50 turn out when Cc1nc(-c2nc(-c3ccc(OC(F)(F)F)cc3)no2)nn1Cc1cccc(N2CCN(S(C)(=O)=O)CC2)c1 [Example 82, 1-Methanesulfonyl-4-{3-[(5-methyl-3-{3-[4-(trifluoromethoxy)phenyl]-1,2,4-oxadiazol-5-yl}-1H-1,2,4-triazol-1-yl)methyl]phenyl}piperazine] was run?
A: Its pIC50 is greater than 7.00.

Q: Cc1nc(-c2nc(-c3ccc(OC(F)(F)F)cc3)no2)nn1Cc1cccc(NCCN(C)C)c1 [Example 11, N,N-Dimethyl-2-((3-((5-methyl-3-(3-(4-(trifluoromethoxy)phenyl)-1,2,4-oxadiazol-5-yl)-1H-1,2,4-triazol-1-yl)methyl)phenyl)amino)ethanaminium trifluoroacetate] was tested. Which pIC50 did it give?
A: Its pIC50 is 5.00 to 6.00.

Q: With Cc1nc(-c2nc(-c3ccc(S(C)(=O)=O)cc3)no2)nn1Cc1ccnc(N2CCN(C)CC2)c1 [Example 21, 1-Methyl-4-(4-((5-methyl-3-(3-(4-(methylsulfonyl)phenyl)-1,2,4-oxadiazol-5-yl)-1H-1,2,4-triazol-1-yl)methyl)pyridin-1-ium-2-yl)piperazin-1-ium bis-trifluoroacetate] as the compound, how does the pIC50 read?
A: Its pIC50 is 5.00 to 6.00.

Q: How did the pIC50 turn out when Cc1cc(Cn2nc(-c3nc(-c4ccc(OC(F)(F)F)cc4)no3)nc2C)n(C)n1 [Example 48, 5-(1-((1,3-Dimethyl-1H-pyrazol-5-yl)methyl)-5-methyl-1H-1,2,4-triazol-3-yl)-3-(4-(trifluoromethoxy)phenyl)-1,2,4-oxadiazole] was run?
A: Its pIC50 is 6.00 to 7.00.

Q: With Cc1nc(-c2nc(-c3ccc(OC(F)(F)F)cc3)no2)nn1Cc1cccc(OC(F)F)c1 [Example 103, 5-(1-(3-(difluoromethoxy)benzyl)-5-methyl-1H-1,2,4-triazol-3-yl)-3-(4-(trifluoromethoxy)phenyl)-1,2,4-oxadiazole] as the compound, how does the pIC50 read?
A: Its pIC50 is 6.00 to 7.00.

Q: How did the pIC50 turn out when Cc1nc(-c2nc(-c3ccc(OC(F)(F)F)cc3)no2)nn1Cc1cccc(C(=O)NC(C)C)c1 [Example 122, 3-[(5-methyl-3-{3-[4-(trifluoromethoxy)phenyl]-1,2,4-oxadiazol-5-yl}-1H-1,2,4-triazol-1-yl)methyl]-N-(propan-2-yl)benzamide] was run?
A: The pIC50 was greater than 7.00.

Q: Cc1nc(-c2nc(-c3ccc(OC(F)(F)F)cc3)cs2)nn1Cc1cccc(N2CCN(C)CC2)c1 [Example 148, 1-methyl-4-{3-[(5-methyl-3-{4-[4-(trifluoromethoxy)phenyl]-1,3-thiazol-2-yl}-1H-1,2,4-triazol-1-yl)methyl]phenyl}piperazine] was tested. Which pIC50 did it give?
A: Its pIC50 is greater than 7.00.

Q: How did the pIC50 turn out when Cc1nc(-c2nc(-c3ccc(OC(F)(F)F)cc3)cs2)nn1Cc1cccc(C(=O)N(C)C)c1 [Example 89, N,N-Dimethyl-3-[(5-methyl-3-{4-[4-(trifluoromethoxy)phenyl]-1,3-thiazol-2-yl}-1H-1,2,4-triazol-1-yl)methyl]benzamide] was run?
A: Its pIC50 is 6.00 to 7.00.

Q: Cc1nc(-c2nc(-c3ccc(OC(F)(F)F)cc3)no2)nn1Cc1cccc(OCCN)c1 [Example 70, 5-(1-{[3-(2-Aminoethoxy)phenyl]methyl}-5-methyl-1H-1,2,4-triazol-3-yl)-3-[4-(trifluoromethoxy)phenyl]-1,2,4-oxadiazole] was tested. Which pIC50 did it give?
A: The pIC50 was 6.00 to 7.00.

Q: How did the pIC50 turn out when COC(=O)[C@@H](NS(=O)(=O)c1cccc(Cn2nc(-c3nc(-c4ccc(OC(F)(F)F)cc4)no3)nc2C)c1)C(C)C [Example 132, methyl (2S)-3-methyl-2-{3-[(5-methyl-3-{3-[4-(trifluoromethoxy)phenyl]-1,2,4-oxadiazol-5-yl}-1H-1,2,4-triazol-1-yl)methyl]benzenesulfonamido}butanoate] was run?
A: The pIC50 was 6.00 to 7.00.

Q: With COC(=O)c1cccc(Cn2nc(-c3ncc(-c4ccc(OC(F)(F)F)cc4)o3)nc2C)c1 [Example 155, methyl 3-[(5-methyl-3-{5-[4-(trifluoromethoxy)phenyl]-1,3-oxazol-2-yl}-1H-1,2,4-triazol-1-yl)methyl]benzoate] as the compound, how does the pIC50 read?
A: Its pIC50 is 6.00 to 7.00.

Q: Cc1nc(-c2nc(-c3ccc(OC(F)(F)F)cc3)no2)nn1Cc1cnc(Cl)s1 [Example 17, 5-(1-((2-Chlorothiazol-5-yl)methyl)-5-methyl-1H-1,2,4-triazol-3-yl)-3-(4-(trifluoromethoxy)phenyl)-1,2,4-oxadiazole] was tested. Which pIC50 did it give?
A: The pIC50 was 5.00 to 6.00.

Q: Cc1nc(-c2nc(-c3ccc(OC(F)(F)F)cc3)no2)nn1Cc1cccc(N2CCN(C)CC2)c1 [Example 25, 1-methyl-4-(3-((5-methyl-3-(3-(4-(trifluoromethoxy)phenyl)-1,2,4-oxadiazol-5-yl)-1H-1,2,4-triazol-1-yl)methyl)phenyl)piperazin-1-ium trifluoroacetate] was tested. Which pIC50 did it give?
A: Its pIC50 is greater than 7.00.

Q: With COC(=O)c1cccc(Cn2nc(-c3nc(-c4ccc(OC(F)(F)F)cc4)no3)nc2C)c1 [Example 12, Methyl 3-((5-methyl-3-(3-(4-(trifluoromethoxy)phenyl)-1,2,4-oxadiazol-5-yl)-1H-1,2,4-triazol-1-yl)methyl)benzoate] as the compound, how does the pIC50 read?
A: Its pIC50 is greater than 7.00.

Q: How did the pIC50 turn out when CNC(=O)c1cccc(Cn2nc(-c3nc(-c4ccc(OC(F)(F)F)cc4)no3)nc2C)c1 [Example 120, N-methyl-3-[(5-methyl-3-{3-[4-(trifluoromethoxy)phenyl]-1,2,4-oxadiazol-5-yl}-1H-1 2 4-triazol-1-yl)methyl]benzamide] was run?
A: Its pIC50 is greater than 7.00.

Q: With Cc1nc(-c2ncc(-c3ccc(OC(F)(F)F)cc3)o2)nn1Cc1cccc(S(C)(=O)=O)c1 [Example 159, 1-[(3-methanesulfonylphenyl)methyl]-5-methyl-3-{5-[4-(trifluoromethoxy)phenyl]-1,3-oxazol-2-yl}-1H-1,2,4-triazole] as the compound, how does the pIC50 read?
A: Its pIC50 is 6.00 to 7.00.

Q: Cc1nc(-c2nc(-c3ccc(OC(F)(F)F)cc3)no2)nn1Cc1ccnc(N2CCCC2)c1 [Example 28, 5-(5-Methyl-1-((2-(pyrrolidin-1-yl)pyridin-4-yl)methyl)-1H-1,2,4-triazol-3-yl)-3-(4-(trifluoromethoxy)phenyl)-1,2,4-oxadiazole] was tested. Which pIC50 did it give?
A: Its pIC50 is greater than 7.00.
